This is an account of results in patent publication US11117947B2, “Double-acylated GLP-1 derivatives” (Novo Nordisk A/S, priority 2011, dated 2021).

Data set [1] is described as follows: Estimate of oral bioavailability: gut injection in rat (caprate), exposure in plasma. In kind it is in vivo. The following applies: injection in jejunum, 1000 uM in 55 mg/ml sodium caprate, plasma concentration (pM) at 30 min divided by dosing solution concentration (μM), mean n=4. On the procedure: The GLP-1 derivatives were tested in a concentration of 1000 uM in a solution of 55 mg/ml sodium caprate.
Male Sprague Dawley rats with a body weight upon arrival of approximately 240 g were obtained from Taconic (Denmark) and assigned to the different treatments by simple randomisation, 4 rats per group.
The GLP-1 derivatives were administered in the jejunum either in the proximal part (10 cm distal for the duodenum) or in the mid-intestine (50 cm proximal for the cecum). A PE50-catheter, 10 cm long was inserted into the jejunum, forwarded at least 1.5 cm into the jejunum, and secured before dosing by ligature around the gut and the catheter with 3/0 suture distal to tip to prevent leak or catheter displacement. Catheter was placed without syringe and needle and 2 ml saline was administered into abdomen before closing the incision with wound clips.
100 μl of the respective GLP-1 derivative was injected into the jejunal lumen through the catheter with a 1 ml syringe. Subsequently, 200 μl of air was pushed into the jejunal lumen with another syringe to “flush” the catheter. This syringe was leaved connected to the catheter to prevent flow back into the catheter.
Blood samples (200 ul) were collected at desired intervals (usually at times 0, 10, 30, 60, 120 and 240 min) into EDTA tubes from the tail vein and centrifuged 5 minutes, 10000G, at 4° C. within 20 minutes. […] 12, p. 240-247. The donor beads were coated with streptavidin, while acceptor beads were conjugated with a monoclonal antibody recognising a mid-/C-terminal epitope of the peptide. Another monoclonal antibody, specific for the N-terminus, was biotinylated. The three reactants were combined with the analyte and formed a two-sited immuno-complex. Illumination of the complex released singlet oxygen atoms from the donor beads, which were channeled into the acceptor beads and triggered chemiluminescence which was measured in an Envision plate reader. The amount of light was proportional to the concentration of the compound.
After the blood sampling the rats were sacrificed under anaesthesia and the abdomen was opened to verify correct catheter placement.
The mean (n=4) plasma concentrations (pmol/l) were determined as a function of time.

For data set [2], the target named is T1, human GLP-1 receptor (Homo sapiens, UniProt P43220).
T1 construct: expressed in transfected cells; membranes
The data set is described as follows: GLP-1 receptor binding: displacement of 125I-GLP-1 (SPA) at low and high albumin. As to the method: The purpose of this experiment is to investigate the binding to the GLP-1 receptor of the GLP-1 derivatives, and how the binding is potentially influenced by the presence of albumin. This is done in an in vitro experiment as described below.
In order to test the binding of the derivatives to albumin, the assay was performed with a low concentration of albumin (0.001%—corresponding to the residual amount thereof in the tracer), as well as with a high concentration of albumin (2.0% added). A shift in the binding affinity, IC50, is an indication that the peptide in question binds to albumin, and thereby a prediction of a potential protracted pharmacokinetic profile of the peptide in question in animal models.
Species (in vitro): Hamster
Biological End Point: Receptor Binding
A stable transfected cell line and a high expressing clone were selected for screening. The cells were grown at 5% CO2 in DMEM, 10% FCS, 1% Pen/Strep (Penicillin/Streptomycin) and 1.0 mg/ml of the selection marker G418.
The cells (approx. 80% confluence) were washed twice in PBS and harvested with Versene (aqueous solution of the tetrasodium salt of ethylenediaminetetraacetic acid), following which they were separated by centrifugation at 1000 rpm for 5 min. The cells/cell pellet must be kept on ice to the extent possible in the subsequent steps. The cell pellet was homogenised with Ultrathurrax for 20-30 seconds in a suitable amount of Buffer 1 (depending on the amount of cells, but e.g. 10 ml). The homogenate was centrifuged at 20000 rpm for 15 minutes. The pellet was resuspended (homogenised) in 10 ml Buffer 2 and re-centrifuged. This step was repeated once more. The resulting pellet was resuspended in Buffer 2, and the protein concentration was determined. The membranes were stored at minus 80° C.
Buffer 1: 20 mM Na-HEPES+10 mM EDTA, pH 7.4
Buffer 2: 20 mM Na-HEPES+0.1 mM EDTA, pH 7.4
Test compounds, membranes, SPA-particles and [^125I]-GLP-1(7-36)NH2 were diluted in assay buffer. 50 ul (micro liter) HSA (“high albumin” experiment containing 2% HSA), or buffer (“low albumin” experiment containing 0.001% HSA), was added to Optiplate, and 25 ul of test compounds were added. 5-10 ug membrane protein/sample was added (50 ul) corresponding to 0.1-0.2 mg protein/ml (to be preferably optimised for each membrane preparation). SPA-particles (Wheatgerm agglutinin SPA beads, Perkin Elmer, #RPNQ0001) were added in an amount of 0.5 mg/well (50 ul). The incubation was started with [^125I]-GLP-1]-(7-36)NH2 (final concentration 0.06 nM corresponding to 49.880 DPM, 25 ul). The plates were sealed with PlateSealer and incubated for 120 minutes at 30° C. while shaking. The plates were centrifuged (1500 rpm, 10 min) and counted in Topcounter.

The mark [3] stands for this setting: high albumin, 2.0% HSA, read-out: IC50/nM (high HSA).

Read-outs that look alike come from different tables or passages of the source. Numbered stars: 1 amine (or outer) side, 2 acyl side, 3 side chain; on linkers, the order of the positions; unused ones are H or OH. Side chains are listed from the residue outwards. Peptide text beside a SMILES is read from it. * marks the point of attachment. Decanoyl(10-(4-HOOC-PhO)) = O=C(O)c1ccc(OCCCCCCCCCC(=O)*)cc1; γGlu = O=C(O)[C@H](CCC(=O)[*:2])N[*:1]; C14 diacid = O=C(O)CCCCCCCCCCCCC(=O)*; AEEA = NCCOCCOCC(=O)O

T1 sequence (P43220 24-463): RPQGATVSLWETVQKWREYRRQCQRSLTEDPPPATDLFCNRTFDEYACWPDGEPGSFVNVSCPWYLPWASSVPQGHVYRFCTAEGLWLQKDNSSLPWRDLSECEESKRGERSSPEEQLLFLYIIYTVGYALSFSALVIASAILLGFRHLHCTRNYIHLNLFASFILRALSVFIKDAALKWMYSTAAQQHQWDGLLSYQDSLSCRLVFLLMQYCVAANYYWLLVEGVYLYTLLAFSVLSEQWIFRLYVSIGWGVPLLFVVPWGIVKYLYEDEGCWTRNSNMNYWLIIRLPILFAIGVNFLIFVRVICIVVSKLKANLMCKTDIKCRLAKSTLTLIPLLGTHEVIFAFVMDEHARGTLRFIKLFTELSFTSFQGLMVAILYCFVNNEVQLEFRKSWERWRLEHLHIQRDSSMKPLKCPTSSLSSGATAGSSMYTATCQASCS

As to `CC[C@H](C)[C@H](NC(=O)[C@H](Cc1ccccc1)NC(=O)[C@H](CCCCNC(=O)COCCOCCNC(=O)COCCOCCNC(=O)CC[C@H](NC(=O)CCCCCCCCCOc1ccc(C(=O)O)cc1)C(=O)O)NC(=O)[C@H](CCCNC(=N)N)NC(=O)[C@@H](NC(=O)[C@H](C)NC(=O)[C@H](CCC(N)=O)NC(=O)[C@H](CCC(=O)O)NC(=O)[C@H](CCC(=O)O)NC(=O)[C@H](CC(C)C)NC(=O)[C@H](Cc1ccc(O)cc1)NC(=O)[C@H](CO)NC(=O)[C@H](CO)NC(=O)[C@@H](NC(=O)[C@H](CC(=O)O)NC(=O)[C@H](CO)NC(=O)[C@@H](NC(=O)[C@H](Cc1ccccc1)NC(=O)[C@@H](NC(=O)CNC(=O)[C@H](CCC(=O)O)NC(=O)[C@H](C)NC(=O)[C@@H](N)Cc1c[nH]cn1)[C@@H](C)O)[C@@H](C)O)C(C)C)C(C)C)C(=O)N[C@@H](C)C(=O)N[C@@H](Cc1c[nH]c2ccccc12)C(=O)N[C@@H](CC(C)C)C(=O)N[C@H](C(=O)N[C@@H](CCCNC(=N)N)C(=O)NCC(=O)N[C@@H](CCCNC(=N)N)C(=O)N[C@@H](CCCCNC(=O)COCCOCCNC(=O)COCCOCCNC(=O)CC[C@H](NC(=O)CCCCCCCCCOc1ccc(C(=O)O)cc1)C(=O)O)C(=O)O)C(C)C` [Example 4, N^ε27-[2-[2-[2-[[2-[2-[2-[[(4S)-4-carboxy-4-[10-(4-carboxyphenoxy)decanoylamino]butanoyl]amino]ethoxy]ethoxy]acetyl]amino]ethoxy]ethoxy]acetyl], N^ε37-[2-[2-[2-[[2-[2-[2-[[(4S)-4-carboxy-4-[10-(4-carboxyphenoxy)decanoylamino]butanoyl]amino]ethoxy]ethoxy]acetyl]amino]ethoxy]ethoxy]acetyl]-[Glu^22,Val^25,Arg^26,Lys^27,Arg^34,Lys^37]-GLP-1-(7-37)-peptide] (H-HAEGTFTSDVSSYLEEQAVRK([AEEA-AEEA-γGlu-Decanoyl(10-(4-HOOC-PhO))])FIAWLVRGRK([AEEA-AEEA-γGlu-Decanoyl(10-(4-HOOC-PhO))])-OH; N-terminus and C-terminus assumed), the “Dose-corrected exposure at 30 min” value in data set [1] was 39.

With `CC[C@H](C)[C@H](NC(=O)[C@H](Cc1ccccc1)NC(=O)[C@H](CCCCNC(=O)COCCOCCNC(=O)COCCOCCNC(=O)CC[C@H](NC(=O)CCCCCCCCCOc1ccc(C(=O)O)cc1)C(=O)O)NC(=O)[C@H](CCCNC(=N)N)NC(=O)[C@@H](NC(=O)[C@H](CCCCNC(=O)COCCOCCNC(=O)COCCOCCNC(=O)CC[C@H](NC(=O)CCCCCCCCCOc1ccc(C(=O)O)cc1)C(=O)O)NC(=O)[C@H](CCC(N)=O)NC(=O)[C@H](CCC(=O)O)NC(=O)[C@H](CCC(=O)O)NC(=O)[C@H](CC(C)C)NC(=O)[C@H](Cc1ccc(O)cc1)NC(=O)[C@H](CO)NC(=O)[C@H](CO)NC(=O)[C@@H](NC(=O)[C@H](CC(=O)O)NC(=O)[C@H](CO)NC(=O)[C@@H](NC(=O)[C@H](Cc1ccccc1)NC(=O)[C@@H](NC(=O)CNC(=O)[C@H](CCC(=O)O)NC(=O)[C@H](C)NC(=O)[C@@H](N)Cc1c[nH]cn1)[C@@H](C)O)[C@@H](C)O)C(C)C)C(C)C)C(=O)N[C@@H](C)C(=O)N[C@@H](Cc1c[nH]c2ccccc12)C(=O)N[C@@H](CC(C)C)C(=O)N[C@H](C(=O)N[C@@H](CCCNC(=N)N)C(=O)NCC(=O)N[C@@H](CCCNC(=N)N)C(=O)NCC(=O)O)C(C)C` [Example 28, N^ε24-[2-[2-[2-[[2-[2-[2-[[(4S)-4-carboxy-4-[10-(4-carboxyphenoxy)decanoylamino]butanoyl]amino]ethoxy]ethoxy]acetyl]amino]ethoxy]ethoxy]acetyl], N^ε27-[2-[2-[2-[[2-[2-[2-[[(4S)-4-carboxy-4-[10-(4-carboxyphenoxy)decanoylamino]butanoyl]amino]ethoxy]ethoxy]acetyl]amino]ethoxy]ethoxy]acetyl]-[Glu^22,Lys^24,Val^25,Arg^26,Lys^27,Arg^34]-GLP-1-(7-37)-peptide] (H-HAEGTFTSDVSSYLEEQK([AEEA-AEEA-γGlu-Decanoyl(10-(4-HOOC-PhO))])VRK([AEEA-AEEA-γGlu-Decanoyl(10-(4-HOOC-PhO))])FIAWLVRGRG-OH; N-terminus and C-terminus assumed), the IC50 is 29 nM in data set [2] (setting [3]) and 0.2 nM in data set [2] (low albumin, 0.001% HSA, read-out: IC50/nM (low HSA)). `CC[C@H](C)[C@H](NC(=O)[C@H](Cc1ccccc1)NC(=O)[C@H](CCCCNC(=O)CC[C@H](NC(=O)COCCOCCNC(=O)COCCOCCNC(=O)CCCCCCCCCCCCC(=O)O)C(=O)O)NC(=O)[C@H](CCCNC(=N)N)NC(=O)[C@@H](NC(=O)[C@H](CCCCNC(=O)CC[C@H](NC(=O)COCCOCCNC(=O)COCCOCCNC(=O)CCCCCCCCCCCCC(=O)O)C(=O)O)NC(=O)[C@H](CCC(N)=O)NC(=O)[C@H](CCC(=O)O)NC(=O)[C@H](CCC(=O)O)NC(=O)[C@H](CC(C)C)NC(=O)[C@H](Cc1ccc(O)cc1)NC(=O)[C@H](CO)NC(=O)[C@H](CO)NC(=O)[C@@H](NC(=O)[C@H](CC(=O)O)NC(=O)[C@H](CO)NC(=O)[C@@H](NC(=O)[C@H](Cc1ccccc1)NC(=O)[C@@H](NC(=O)CNC(=O)[C@H](CCC(=O)O)NC(=O)[C@H](C)NC(=O)[C@@H](N)Cc1c[nH]cn1)[C@@H](C)O)[C@@H](C)O)C(C)C)C(C)C)C(=O)N[C@@H](C)C(=O)N[C@@H](Cc1c[nH]c2ccccc12)C(=O)N[C@@H](CC(C)C)C(=O)N[C@H](C(=O)NCC(=O)O)C(C)C` [Example 30, N^ε24-[(4S)-4-carboxy-4-[[2-[2-[2-[[2-[2-[2-(13-carboxytridecanoylamino)ethoxy]ethoxy]acetyl]amino]ethoxy]ethoxy]acetyl]amino]butanoyl], N^ε27-[(4S)-4-carboxy-4-[[2-[2-[2-[[2-[2-[2-(13-carboxytridecanoylamino)ethoxy]ethoxy]acetyl]amino]ethoxy]ethoxy]acetyl]amino]butanoyl]-[Glu^22,Lys^24, Val^25, Arg^26, Lys^27,Gly^34]-GLP-1-(7-34)-peptide] (H-HAEGTFTSDVSSYLEEQK([γGlu-AEEA-AEEA-C14 diacid])VRK([γGlu-AEEA-AEEA-C14 diacid])FIAWLVG-OH): in data set [2] (setting [3]), the IC50 was more than 1000 nM.
